# Data: patent US20150209315A1 (Cumberland Pharmaceuticals, priority 2009, published 2015)
# Columns and labels:
# [1] = test system: post-operative adult patients; assay: Example 1: treatment failures; assay type: in vivo, human; conditions: ITT
# Experimental: Eligible patients were randomized to one of the three treatment groups. All patients were able (but were not required) to receive morphine until approximately 45 minutes before the end of the surgical procedure. After that time, only fentanyl was allowed until the end of the operation. The first dose of ibuprofen was administered at approximately the initiation of skin closure. […] Other than ibuprofen or placebo, only morphine was administered for pain. […] Additional morphine could be administered at the discretion of the treating physician if adequate pain control had still not been achieved. Patients given non-morphine analgesics were classified as treatment failures. Treatment failures were not replaced. A treatment failure was defined as a patient that required narcotic pain medication, other than morphine, or non-narcotic medications including the use of another NSAID through the treatment period. If other narcotics (other than morphine) or NSAIDS were started, ibuprofen/placebo was discontinued. In the ITT population, there was a numerical trend but not a statistically significant difference for fewer treatment failures in the ibuprofen groups compared to the placebo group: […]
# [2] = test system: post-operative adult patients; assay: Example 1: time to GI motility, ambulation, liquid/solid intake, length of hospital stay; assay type: in vivo, human; conditions: for Time to GI motility: value + SD
# [3] = test system: post-operative adult patients; assay: Example 2: treatment failures; assay type: in vivo, human; conditions: 800 mg; ITT
# Experimental: Eligible patients were randomized to one of the two treatment groups. All patients were able (but were not required) to receive morphine until approximately 45 minutes before the end of the surgical procedure. After that time, only fentanyl was allowed until the end of the operation. The first dose of ibuprofen was administered at approximately the initiation of skin closure. […] Other than ibuprofen or placebo, only morphine was administered for pain. […] Additional morphine could be administered at the discretion of the treating physician if adequate pain control had still not been achieved. Patients given non-morphine analgesics were classified as treatment failures. Treatment failures were not replaced. A treatment failure was defined as a patient that required narcotic pain medication, other than morphine, or non-narcotic medications including the use of another NSAID through the treatment period. If other narcotics (other than morphine) or NSAIDS were started, CTM was discontinued.
# [4] = test system: post-operative adult patients; assay: Example 2: time to GI motility, ambulation, liquid intake, solid diet, length of hospital stay; assay type: in vivo, human; conditions: 800 mg; for Time to GI motility: value + SD
# Experimental: To evaluate the secondary objective of determining whether the addition of IVIb reduces the incidence of opioid related side-effects, the following endpoints were measured: (a) GI motility as assessed by return of bowel sounds, flatulence, or bowel movement (b) Combined Safety Assessment (occurrence of any of the following during the 48 hour treatment period received a rating of one: diffuse pruritus, overt respiratory depression requiring treatment; the combined total and individual incidences were evaluated), need for post-operative urinary indwelling catheter (after initial removal of surgical catheter), incidence of post-operative vomiting or need for anti-emetic medication, Richmond Agitation Sedation Scale (<−3), (c) Resumption of ambulation, (d) Resumption of liquid intake and solid diet, and (e) Length of hospital stay.
# [5] = test system: patients undergoing orthopedic surgical procedures; assay: Example 3: morphine use post-surgery through study hour 28; assay type: in vivo, human; conditions: for Morphine Requirement, LS Means Difference (95% CI): 800 mg vs placebo; for Morphine Requirement, LS Means Difference (95% CI) / Morphine Requirement, LS Means (SE) / Morphine Requirement, Mean (SD) / Morphine Requirement, Median: Post-Op-28 hours; for decrease in the mean morphine used in the postoperative period / Morphine Requirement, LS Means (SE) / Morphine Requirement, Mean (SD) / Morphine Requirement, Median: 800 mg
# [6] = test system: patients undergoing orthopedic surgical procedures; assay: Example 3: additional measurements of efficacy; assay type: in vivo, human; conditions: 800 mg
# Source text: Additional measurements of efficacy were incidence of treatment failure, time to GI motility, time to resumption of ambulation, time to resumption of liquid intake, time to resumption of solid diet, and length of hospital stay.
# [7] = test system: patients with fever and severe sepsis; conditions: cited from earlier work
# [8] = test system: patients undergoing orthopedic surgical procedures; assay: Example 3: pain at rest measured with VAS; conditions: 800 mg, immediately post-surgery
smiles,measurement,setting,value
"CC(C)Cc1ccc(C(C)C(=O)O)cc1 (stereo not shown) [Ibuprofen, 2-(4-isobutylphenyl) propionic acid]","treatment failures, number of patients",[1]; 400 mg,7
same,"treatment failures, percent of patients",[1]; 400 mg,5%
same,"treatment failures, number of patients",[1]; 800 mg,4
same,"treatment failures, percent of patients",[1]; 800 mg,3%
same,Time to GI motility,"[2]; 400 mg, EEP",20.2+1.30 hours
same,Time to GI motility,"[2]; 400 mg, ITT",20.1+1.28 hours
same,Time to GI motility,"[2]; 800 mg, EEP",21.2+1.63 hours
same,Time to GI motility,"[2]; 800 mg, ITT",21.6+1.50 hours
same,time to liquid intake vs placebo,"[2]; ibuprofen treated group, ITT",not found to be statistically significant
same,time to solid intake vs placebo,"[2]; ibuprofen treated group, ITT",not found to be statistically significant
same,Time to ambulation vs placebo,"[2]; ibuprofen treated groups, ITT",found not to be statistically significant faster
same,Length of hospital stay vs placebo,"[2]; treated groups, ITT",not found to be statistically significant
same,"treatment failures, number of patients",[3],7
same,"treatment failures, percent of patients",[3],4%
same,Length of hospital stay,[4]; EEP,62.8 ± 21.58
same,Time to ambulation,[4]; EEP,23.5 ± 0.53 h
same,Time to liquid intake,[4]; EEP,12.4 ± 0.89
same,Time to solid diet,[4]; EEP,39.1 ± 1.42 h
same,Time to GI motility,[4]; EEP,9.2+0.90 hours
same,Length of hospital stay,[4]; ITT,62.4 ± 21.01
same,Time to ambulation,[4]; ITT,23.4 ± 0.50 h
same,Time to liquid intake,[4]; ITT,12.1 ± 0.83
same,Time to solid diet,[4]; ITT,41.0 ± 2.46 h
same,Time to ambulation,"[4]; ITT, listed as IV Ibuprofen",significantly improved time to ambulation
same,Time to GI motility,[4]; ITT,9.4+0.87 hours
same,"Morphine Requirement, LS Means Difference (95% CI)",[5]; AT,"−16.6 (−24.7, −8.4)"
same,"Morphine Requirement, LS Means Difference (95% CI)",[5]; EEP,"−18.1 (−27.2, −9.0)"
same,"Morphine Requirement, LS Means Difference (95% CI)",[5]; ITT,"−16.4 (−24.6, −8.1)"
same,decrease in the mean morphine used in the postoperative period,[5]; AT,30.9%
same,"Morphine Requirement, LS Means (SE)",[5]; AT,44.3 (5.7)
same,"Morphine Requirement, Mean (SD)",[5]; AT,41.1 (27.3)
same,"Morphine Requirement, Median",[5]; AT,38.0
same,"Morphine Requirement, LS Means (SE)",[5]; EEP,43.7 (5.9)
same,"Morphine Requirement, Mean (SD)",[5]; EEP,43.7 (26.9)
same,"Morphine Requirement, Median",[5]; EEP,40.5
same,decrease in the mean morphine used in the postoperative period,[5]; EPP,33.3%
same,decrease in the mean morphine used in the postoperative period,[5]; ITT,30.3%
same,"Morphine Requirement, LS Means (SE)",[5]; ITT,45.2 (5.8)
same,"Morphine Requirement, Mean (SD)",[5]; ITT,41.9 (26.9)
same,"Morphine Requirement, Median",[5]; ITT,38.0
same,"treatment failure, time to GI motility, ambulation, liquid intake, solid diet, length of hospital stay vs placebo",[6],no significant differences between treatment groups
same,"safety (renal function, gastrointestinal bleeding, transfusion requirements, other SAEs)","[7]; in vivo, iv",safe
same,"effect on fever, pulse rate and lactic acidosis","[7]; patients with sepsis, intravenous",reduced fever and pulse rate and lessened lactic acidosis
same,decrease in the mean VAS at rest,[8]; AT,15.8%
same,decrease in the mean VAS at rest,[8]; efficacy evaluable,14.7%
same,decrease in the mean VAS at rest,[8]; intent-to-treat,16.5%
